In brackets after ≈: the same amount, converted by molar mass.
Legend:
Assay type in all cases: cell-based
[1] = tested on: phagocytized L. monocytogenes
[2] = tested on: phagocytized L. pneumophila
H. influenzae = assay: MIC against H. influenzae (30 species)
Ureaplasma urealyticum = assay: MIC against Ureaplasma urealyticum; settings: N 10
Streptococcus mitis = assay: MIC against Streptococcus mitis; settings: N 73

For `CC[C@H]1OC(=O)[C@@](C)(F)C(=O)[C@H](C)[C@@H](O[C@@H]2O[C@H](C)C[C@H](N(C)C)[C@H]2O)[C@](C)(OC)C[C@@H](C)C(=O)[C@H](C)[C@H]2N(CCCCn3cc(-c4cccc(N)c4)nn3)C(=O)O[C@]12C` [Solithromycin, solithromycin], the “activity against phagocytized bacteria, fold greater” value [1] was 50-100 fold, the “potency relative to azithromycin” value ([1]; phagocytized L. monocytogenes) was 50 fold and the “potency relative to azithromycin” value [2] was 100 fold. The “I = intermediate susceptibility” value (H. influenzae) was 0%, the MIC50 (H. influenzae) was 2 µg/mL (≈ 2.37 µM) and the MIC90 (H. influenzae) was 2 µg/mL (≈ 2.37 µM). For the same molecule, the “MIC Range” value (H. influenzae) was 1 to 4 µg/mL, the “NS = not susceptible” value (H. influenzae) was 0% and the “S = susceptible” value (H. influenzae) was 100%. The MIC50 (Ureaplasma urealyticum) was 8 ng/mL (≈ 0.00947 µM), the MIC90 (Ureaplasma urealyticum) was 0.031 µg/mL (≈ 0.0367 µM) and the “MIC Range” value (Ureaplasma urealyticum) was 4 to 63 ng/mL. For the same molecule, the MIC50 (Streptococcus mitis) was at most 0.03 µg/mL, the MIC90 (Streptococcus mitis) was 0.06 µg/mL (≈ 0.071 µM) and the “MIC Range” value (Streptococcus mitis) was ≤0.03-0.25^ μg/mL.

— patent publication US20210137961A1, “Compositions and Methods for Treating Dry Eye Diseases” (priority 2017, published 2021)
